Data taken from US20040176422A1, “Heteroarylheteroalkylamine derivatives and their use as inhibitors of nitric oxide synthase” (priority 2001, published 2004).
Structures can show the parent of a compound that is named as a salt.

Compared with `Cl.N#Cc1ccc(C(F)(F)F)nc1O[C@H](CCN)c1nccs1` [Example 12, 2-[[(1R)-3-Amino-1-(2-thiazolyl)propyl]oxy]-6-(trifluoromethyl)-3-pyridinecarbonitrile Hydrochloride], `Cc1cc([C@@H](CCN)Oc2nc(C(F)(F)F)ccc2C#N)no1` [Example 24, 2-[[(1R)-3-Amino-1-(5-methyl-3-isoxazolyl)propyl]oxy]-6-(trifluoromethyl)-3-peridinecarbonitrile Ethanedioate] is higher in melting point: 151 to 153 °C for the first, 163 to 165 °C for the second.

First: COc1cc(S[C@H](CCN)c2ccno2)c(C#N)cn1.O=C(O)/C=C/C(=O)O [Example 16, 4-[[(1R)-3-Amino-1-(5-isoxazolyl)propyl]thio]-6-methoxy-3-pyridinecarbonitrile (E)-butenedioate]
Second: N#Cc1cnc(N)cc1S[C@H](CCN)c1ccno1.O=C(O)/C=C/C(=O)O [Example 14, 6-Amino-4-[[(1R)-3-amino-1-(5-isoxazolyl)propyl]thio]-3-pyridinecarbonitrile (E)-butenedioate]
The melting point of the first is lower: 152 to 153 °C for the first, 160 to 163 °C for the second.

First: Cc1ccc(C#N)c(SC(CCN)c2ccns2)n1.O=C(O)C(=O)O (stereo not drawn) [Example 21, 2-[[3-Amino-1-(5-isothiazolyl)propyl]thio]-6-methyl-3-pyridinecarbonitrile Ethanedioate]
Second: Cc1ccc(C#N)c(OC(CCN)c2ccns2)n1.O=C(O)C(=O)O (stereo not drawn) [Example 22, 2-[3-Amino-1-(5-isothiazolyl)propoxy]-6-methyl-3-pyridinecarbonitrile Ethanedioate]
The melting point of the first is lower: 103 to 104 °C for the first, 175 to 177 °C for the second.

First: COc1cc(O[C@H](CCN)c2ccon2)c(C#N)cn1.O=C(O)C(=O)O [Example 25, 4-[[(1R)-3-Amino-1-(3-isoxazolyl)propyl]oxy]-6-methoxy-3-pyridinecarbonitrile Ethanedioate]
Second: N#Cc1ccc(C(F)(F)F)nc1O[C@H](CCN)c1ccon1.O=C(O)/C=C/C(=O)O [Example 11, 2-[[(1R)-3-Amino-1-(3-isoxazolyl)propyl]oxy]-6-(trifluoromethyl)-3-pyridinecarbonitrile (E)-butenedioate]
The melting point of the first is higher: 173 to 174 °C for the first, 160 to 161 °C for the second.

Compared with `Cc1cc(SC(CCN)c2scnc2Cl)c(C#N)cn1.O=C(O)/C=C/C(=O)O` (stereo not drawn) [Example 28, 4-[[3-Amino-1-(4-chloro-5-thiazolyl)propyl]thio]-6-methyl-3-pyridinecarbonitrile (E)-butenedioate], `Cc1ccc(C#N)c(S[C@H](CCN)c2cc(Cl)no2)n1.O=C(O)/C=C/C(=O)O` [Example 19, 2-[[(1R)-3-Amino-1-(3-chloro-5-isoxazolyl)propyl]thio]-6-methyl-3-pyridinecarbonitrile (E)-butenedioate] is higher in melting point: 180 to 181 °C for the first, 186 to 187 °C for the second.

First: Cc1ccc(C#N)c(S[C@H](CCN)c2ccno2)n1 [Example 6, 2-[[(1R)-3-Amino-1-(5-isoxazolyl)propyl]thio-6-methyl-3-pyridinecarbonitrile Ethanedioate]
Second: Cc1ccc(C#N)c(SC(CCN)c2nocc2C)n1.O=C(O)C(=O)O (stereo not drawn) [Example 26, 2-[[3-Amino-1-(4-methyl-3-isoxazolyl)propyl]thio]-6-methyl-3-pyridinecarbonitrile Ethanedioate]
The melting point of the first is higher: 165 to 167 °C for the first, 132 to 134 °C for the second.

Compared with `N#Cc1ccc(C(F)(F)F)nc1O[C@H](CCN)c1cc(Cl)no1.O=C(O)/C=C/C(=O)O` [Example 18, 2-[[(1R)-3-Amino-1-(3-chloro-5-isoxazolyl)propyl]oxy]-6-(trifluoromethyl)-3-pyridinecarbonitrile (E)-butenedioate], `N#Cc1ccc(C(F)(F)F)nc1OC(CCCN)c1ccno1.O=C(O)/C=C/C(=O)O` (stereo not drawn) [Example 42, 2-[4-Amino-1-(5-isoxazolyl)butoxy]-6-(trifluoromethyl)-3-pyridinecarbonitrile (E)-butenedioate] is higher in melting point: 151 to 152 °C for the first, 155 to 157 °C for the second.

`COc1cc(S[C@H](CCN)c2ccno2)c(Cl)cn1` (as salt: salt) [Example 15, γ-[(5-Chloro-2-methoxy-4-pyridinyl)thio]-(γ^5R)-5-isoxazolepropanamine (E)-butenedioate] gave a melting point of 142 to 143 °C.
